In PubChem BioAssay (NCI):
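Values below derive from 48-hour exposures of cells grown in 96-well plates, with endpoints linearly interpolated between the two concentrations bracketing the appropriate inhibition level. Definition used: TGI = concentration required for complete inhibition of growth.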

Tests used:
Test in all cases: NCI tumour cell line growth inhibition, 48 h
IGROV1 ovarian = tested on: IGROV1 ovarian
SW-620 colon = tested on: SW-620 colon
HOP-92 NSCLC = tested on: HOP-92 NSCLC
COLO 205 colon = tested on: COLO 205 colon
HCT-15 colon = tested on: HCT-15 colon
UACC-257 melanoma = tested on: UACC-257 melanoma
A549 NSCLC = tested on: A549 NSCLC
DU-145 prostate = tested on: DU-145 prostate
SF-539 CNS = tested on: SF-539 CNS
NCI-H23 lung = tested on: NCI-H23 lung

| SMILES | TGI (IGROV1 ovarian) | TGI (SW-620 colon) | TGI (HOP-92 NSCLC) | TGI (COLO 205 colon) | TGI (HCT-15 colon) | TGI (UACC-257 melanoma) | TGI (A549 NSCLC) | TGI (DU-145 prostate) | TGI (SF-539 CNS) | TGI (NCI-H23 lung) |
| --- | --- | --- | --- | --- | --- | --- | --- | --- | --- | --- |
| Cc1ccc(Nc2nc(NS(=O)(=O)c3cc(C)c(Cl)cc3S)n[nH]2)cc1 | > 100 µM | > 100 µM | > 100 µM | > 100 µM | > 100 µM | > 100 µM | > 100 µM | > 100 µM | > 100 µM | > 100 µM |
| CCOC(=O)C12C(=O)CCN1CCc1ccccc1C2C (stereo not given) | > 100 µM | > 100 µM | > 100 µM | > 100 µM | > 100 µM | > 100 µM | > 100 µM | > 100 µM | > 100 µM | > 100 µM |
| Cc1nn(C(=O)c2ccc(Cl)cc2)c2c1C(c1ccco1)SC(N)=N2 (stereo not given) | > 10 µM | > 10 µM | > 10 µM | > 10 µM | > 10 µM | > 10 µM | > 10 µM | > 10 µM | > 10 µM | > 10 µM |
| CC(C)(CN1CCCCC1)C(=O)/C=C/c1c(Cl)cccc1Cl | 1.13 µM | 2.29 µM | 2.34 µM | 3.05 µM | 2.28 µM | 6.36 µM | 5.51 µM | 2.44 µM | 6.71 µM | 2.84 µM |
| CC1CN=C(N(C)C(=O)Nc2ccc(Cl)c(Cl)c2)S1 (stereo not given) | > 100 µM | > 100 µM | 22.9 µM | > 100 µM | 91.5 µM | > 100 µM | > 100 µM | > 100 µM | 52.6 µM | > 100 µM |
| O=C1C=C(NCCc2cc(Br)c(O)c(Br)c2)C(=O)c2[nH]cnc21 | > 100 µM | > 100 µM | 82.3 µM | > 100 µM | > 100 µM | 44.4 µM | > 100 µM | > 100 µM | > 100 µM | 50.8 µM |
| CCOC(=O)/C=C(/C(=O)OCC)n1ccc(=O)[nH]c1=O | 31.1 µM | 3.99 µM | 4.32 µM | 3.99 µM | 9.39 µM | 25.2 µM | 33.8 µM | 29 µM | 34.8 µM | 30.4 µM |
| O=C1CC(Cl)c2c(Cl)sc(Cl)c21 (stereo not given) | 5.09 µM | 3.61 µM | 3.44 µM | 3.7 µM | 5.07 µM | 9.25 µM | 12.7 µM | 7.13 µM | 8.32 µM | 9.32 µM |
| O=C1/C(=C2\SCC(=O)N2c2ccccc2)SC(=S)N1c1ccccc1 | 52.7 µM | > 100 µM | 82.7 µM | > 100 µM | > 100 µM | > 100 µM | > 100 µM | > 100 µM | 85.4 µM | > 100 µM |
| COc1cnnc2c(C)c(-c3ccccc3)nn12 | > 100 µM | > 100 µM | > 100 µM | > 100 µM | > 100 µM | > 100 µM | > 100 µM | > 100 µM | > 100 µM | > 100 µM |
| O=C(CC(=O)Nc1ccccc1Cl)NNC(Sc1ccccc1)c1cc(N=Nc2ccc(Br)cc2)ccc1O (stereo not given) | 5.53 µM | 2.77 µM | 6.68 µM | > 10 µM | > 10 µM | > 10 µM | > 10 µM | > 10 µM | 3.8 µM | 7.39 µM |
| CC(C)C(/C=C/c1ccccc1)=N\NC(=S)NN | > 100 µM | > 100 µM | > 100 µM | > 100 µM | > 100 µM | > 100 µM | > 100 µM | > 100 µM | > 100 µM | > 100 µM |
| C/C(NC(=O)c1ccccc1)=C(/C(=O)c1ccccc1)[C@@H]1OC(C)(C)O[C@@H]1[C@H]1COC(C)(C)O1 | 42 µM | 55.1 µM | 86.6 µM | 48.9 µM | > 100 µM | > 100 µM | > 100 µM | > 100 µM | > 100 µM | 93.9 µM |
| Cc1ccc(NC(=O)CC(=O)N2N=C(c3ccccc3)C(N=Nc3ccc(S(=O)(=O)CCOS(=O)(=O)O)cc3)C2=O)cc1 (stereo not given) | > 100 µM | > 100 µM | > 100 µM | > 100 µM | > 100 µM | > 100 µM | > 100 µM | > 100 µM | > 100 µM | > 100 µM |
| CC(C)=CCC/C(C)=C/CC/C(C)=C/CSc1ccc(Cl)cc1C(=O)O | 34.8 µM | 46.9 µM | 45.2 µM | 51.6 µM | 34.7 µM | 82.2 µM | 30.3 µM | 56 µM | 36.4 µM | 34.9 µM |
| CC(C)(C)OC(=O)N1C/C=C\C(=O)C2(OCCO2)c2ccccc21 | 33.4 µM | 58.7 µM | 44.2 µM | 35.7 µM | > 100 µM | 39.3 µM | > 100 µM | 81.8 µM | 50.3 µM | > 100 µM |
| CC(C)C[C@H](NC(=O)[C@H](CCc1ccccc1)NC(=O)c1ccc2ccccc2n1)B(O)O | 0.972 µM | < 0.0338 µM | 0.28 µM | 5.18 µM | 0.52 µM | 0.0676 µM | 13.4 µM | 3.49 µM | < 0.0225 µM | 0.338 µM |
